Literature values, collected in PubChem BioAssay AID1259410 (Chemical Carcinogenesis Research Information System (CCRIS), 2018).

Test system: rodent tumor promotion studies, tumor incidence
Test: CCRIS tumor promotion studies

Compound: C[C@]12CC[C@H](O)CC1=CC[C@@H]1[C@@H]2CC[C@]2(C)C(=O)CC[C@@H]12
- outcome (Carcinogen: N-METHYL-N'-NITRO-N-NITROSOGUANIDINE, 70-25-7, Doses [Carcinogen]: 35 PPM IN WATER FOR 30 MIN ONCE, Doses [Promoter]: 0, 111, 222, 444, 888 PPM IN DIET FOR 6 MO BEGINNING 3 MO POST CARCINOGEN TREATMENT (STUDY DURATION: 9 MO), Doses [Promoter]: 0, 111, 222, 444, 888 PPM IN DIET FOR 6 MO BEGINNING 3 MO POST CARCINOGEN TREATMENT (STUDY DURATION: 9 MO), Route [Carcinogen]: IMMERSION, Route [Promoter]: ORAL, Species: FISH, Strain/Sex: RAINBOW TROUT/MALE,FEMALE): liver: tumor
- outcome (Carcinogen: N-METHYL-N'-NITRO-N-NITROSOGUANIDINE, 70-25-7, Doses [Carcinogen]: 35 PPM IN WATER FOR 30 MIN ONCE, Doses [Promoter]: 0, 111, 888 PPM IN DIET FOR 6 MO BEGINNING 3 MO POST CARCINOGEN TREATMENT (STUDY DURATION: 9 MO), Doses [Promoter]: 0, 111, 888 PPM IN DIET FOR 6 MO BEGINNING 3 MO POST CARCINOGEN TREATMENT (STUDY DURATION: 9 MO), Route [Carcinogen]: IMMERSION, Route [Promoter]: ORAL, Species: FISH, Strain/Sex: RAINBOW TROUT/MALE,FEMALE): kidney: tumor
- outcome (Carcinogen: N-NITROSOMORPHOLINE, 59-89-2, Doses [Carcinogen]: 120 MG/L IN DRINKING WATER FOR 7 WK, Doses [Promoter]: 0, 0.6% IN THE DIET FOR DURATION OF STUDY BEGINNING 1 WK POST CARCINOGEN TREATMENT (STUDY DURATION: 84 WK), Route [Carcinogen]: ORAL, Route [Promoter]: ORAL, Species: RAT, Strain/Sex: SPRAGUE-DAWLEY/FEMALE): liver: hepatocellular carcinoma
- outcome (Carcinogen: N-NITROSOMORPHOLINE, 59-89-2, Doses [Carcinogen]: 120 MG/L IN DRINKING WATER FOR 7 WK, Doses [Promoter]: 0, 0.6% IN THE DIET FOR DURATION OF STUDY BEGINNING 1 WK POST CARCINOGEN TREATMENT (STUDY DURATION: 84 WK), Route [Carcinogen]: ORAL, Route [Promoter]: ORAL, Species: RAT, Strain/Sex: SPRAGUE-DAWLEY/MALE): liver: hepatocellular adenoma
- outcome (Doses [Carcinogen]: 10 PPB IN WATER FOR 30 MIN, Doses [Promoter]: 0, 444 PPM IN DIET FOR 6 MO BEGINNING 3 MO POST CARCINOGEN TREATMENT (STUDY DURATION: 9 MO), Route [Carcinogen]: IMMERSION, Route [Promoter]: ORAL, Species: FISH, Strain/Sex: RAINBOW TROUT/MALE, FEMALE): liver: tumor
- outcome (Doses [Carcinogen]: 10 PPB IN WATER, Doses [Promoter]: 0, 222, 444, 888 PPM IN DIET 1/D 5 D/WK FOR 30 WK BEGINNING 16 WK POST CARCINOGEN TREATMENT (STUDY DURATION: 46 WK), Doses [Promoter]: 0, 222, 444, 888 PPM IN DIET 1/D 5 D/WK FOR 30 WK BEGINNING 16 WK POST CARCINOGEN TREATMENT (STUDY DURATION: 46 WK), Route [Carcinogen]: IMMERSION, Route [Promoter]: ORAL, Species: FISH, Strain/Sex: RAINBOW TROUT/MALE, FEMALE): liver: tumor

Compound: CCCCCCCCCCCCCC(=O)OCC1=C[C@H]2C3C(C)(C)C3(OC(C)=O)[C@H](OC(=O)CCCCCCCCCCCCC)[C@@H](C)[C@]2(O)[C@@H]2C=C(C)C(=O)[C@]2(O)C1 (some centres undefined)
- outcome (Carcinogen: 7,12-DIMETHYLBENZ[A]ANTHRACENE, 57-97-6, Doses [Carcinogen]: 100 NMOL ONCE, Doses [Promoter]: 0, 50, 100, 200 NMOL 2/WK FOR 24 WK BEGINNING 1 WK POST CARCINOGEN DOSE (STUDY DURATION: 25 WK), Doses [Promoter]: 0, 50, 100, 200 NMOL 2/WK FOR 24 WK BEGINNING 1 WK POST CARCINOGEN DOSE (STUDY DURATION: 25 WK), Route [Carcinogen]: DERMAL, Route [Promoter]: DERMAL, Species: MOUSE, Strain/Sex: NMRI/FEMALE): skin: tumor

Compound: Cc1cc(C(C)(C)C)c(O)c(C(C)(C)C)c1
- outcome (Carcinogen: 2-(ACETYLAMINO)FLUORINE, Doses [Carcinogen]: 200 PPM IN DIET FOR 8 WK, Doses [Promoter]: 300, 1000, 3000, 6000 PPM IN DIET FOR 22 WK AFTER INITIATION FOR 8 WK, Doses [Promoter]: 300, 1000, 3000, 6000 PPM IN DIET FOR 22 WK AFTER INITIATION FOR 8 WK, Route [Carcinogen]: ORAL, Route [Promoter]: ORAL, Species: RAT, Strain/Sex: F344/MALE): liver: neoplastic nodule, hepatocellular carcinoma
- outcome (Carcinogen: 2-(ACETYLAMINO)FLUORINE, Doses [Carcinogen]: DIET, Doses [Promoter]: IN DIET, Route [Carcinogen]: ORAL, Route [Promoter]: ORAL, Species: RAT, Strain/Sex: MALE): liver
- outcome (Carcinogen: 3,2'-DIMETHYL-4-AMINOBIPHENYL, 13394-86-0, Doses [Carcinogen]: 50 MG/KG IN CORN OIL 1/WK FOR 10 WK, Doses [Promoter]: 0, 1 ADMINISTERED TO 4 WK OLD RATS IN DIET FOR 11 WK BEGINNING 1 WK PRIOR TO CARCINOGEN (STUDY DURATION: 55 WK), Route [Carcinogen]: SUBCUTANEOUS, Route [Promoter]: ORAL, Species: RAT, Strain/Sex: F344/MALE): bladder: carcinoma, papilloma
- outcome (Carcinogen: 3-METHYLCHOLANTHRENE, 56-49-5, Doses [Carcinogen]: 10, 15, 25 UG/G ONCE, Doses [Carcinogen]: 10, 15, 25 UG/G ONCE, Doses [Promoter]: 0, 200 MG/KG 1/WK FOR 6 WK (STUDY DURATION: 20 WK), Route [Carcinogen]: INTRAPERITONEAL, Route [Promoter]: INTRAPERITONEAL, Species: MOUSE, Strain/Sex: BALB/CBYJ/FEMALE): lung: tumor
- outcome (Carcinogen: 3-METHYLCHOLANTHRENE, 56-49-5, Doses [Carcinogen]: 10 UG/G ONCE, Doses [Promoter]: 0, 200 MG/KG 1/WK FOR 6 WK (STUDY DURATION: 20 WK), Route [Carcinogen]: INTRAPERITONEAL, Route [Promoter]: INTRAPERITONEAL, Species: MOUSE, Strain/Sex: BALB/COLA/FEMALE): lung: tumor
- outcome (Carcinogen: METHYLNITROSOUREA, 684-93-5, Doses [Carcinogen]: 20 MG/KG 2/WK FOR 4 WK, Doses [Promoter]: 0, 1% IN DIET BEGINNING POST CARCINOGEN TREATMENT AND CONTINUING FOR 32 WK (STUDY DURATION: 36 WK), Route [Carcinogen]: INTRAPERITONEAL, Route [Promoter]: ORAL, Species: RAT, Strain/Sex: F344/MALE): urinary bladder: papilloma, carcinoma; thyroid: adenoma
- outcome (Carcinogen: N,N-DIBUTYLNITROSAMINE, 924-16-3, Doses [Carcinogen]: 0.05% IN DRINKING WATER FOR 16 WK, Doses [Promoter]: 0, 0.7% IN DIET FOR 16 WK CONCOMITANT WITH CARCINOGEN TREATMENT (STUDY DURATION: 32 WK), Route [Carcinogen]: ORAL, Route [Promoter]: ORAL, Species: RAT, Strain/Sex: F344/MALE): liver: hepatocellular carcinoma
- outcome (Carcinogen: N-BUTYL-N-(4-HYDROXYBUTYL)NITROSAMINE, 3817-11-6, Doses [Carcinogen]: 0.05% IN DRINKING WATER FOR 4 WK, Doses [Promoter]: 0, 1% IN DIET FOR 32 WK (STUDY DURATION: 36 WK), Route [Carcinogen]: ORAL, Route [Promoter]: ORAL, Species: RAT, Strain/Sex: F344/MALE): urinary bladder: papilloma, carcinoma
- outcome (Carcinogen: N-BUTYL-N-(4-HYDROXYBUTYL)NITROSAMINE, Doses [Carcinogen]: 0.05% IN DRINKING WATER FOR 4 WK, Doses [Promoter]: 1% IN DIET FOR 32 WK AFTER INITIATION, Route [Carcinogen]: ORAL, Route [Promoter]: ORAL, Species: RAT, Strain/Sex: F344/MALE): urinary bladder: carcinoma
- outcome (Carcinogen: N-METHYL-N-NITROSOUREA, 684-93-5, Doses [Carcinogen]: 20 MG/KG 2/WK FOR 4 WK, Doses [Promoter]: 0, 1% IN DIET FOR 32 WK (STUDY DURATION: 36 WK), Route [Carcinogen]: INTRAPERITONEAL, Route [Promoter]: ORAL, Species: RAT, Strain/Sex: F344/MALE): thyroid gland: adenoma; urinary bladder: papilloma, carcinoma
- outcome (Carcinogen: URETHANE, 51-79-6, Doses [Carcinogen]: 1 MG/G BW ONCE, Doses [Promoter]: 0, 200 MG/G BW 1/WK FOR 6 WK BEGINNING POST CARCINOGEN TREATMENT (STUDY DURATION: 20 WK), Route [Carcinogen]: INJECTION, Route [Promoter]: INJECTION, Species: MOUSE, Strain/Sex: BALB/MALE,FEMALE): lung: tumor
- outcome (Carcinogen: URETHANE, 51-79-6, Doses [Carcinogen]: 1 MG/G BW ONCE, Doses [Promoter]: 0, 200 MG/G BW 1/WK FOR 6 WK BEGINNING POST CARCINOGEN TREATMENT (STUDY DURATION: 20 WK), Route [Carcinogen]: INJECTION, Route [Promoter]: INJECTION, Species: MOUSE, Strain/Sex: GRS/MALE,FEMALE): lung: tumor
- outcome (Carcinogen: URETHANE, 51-79-6, Doses [Carcinogen]: 1 MG/KG ONCE, Doses [Promoter]: 0, 200 MG/KG 1/WK FOR 6 WK (STUDY DURATION: 20 WK), Route [Carcinogen]: INTRAPERITONEAL, Route [Promoter]: INTRAPERITONEAL, Species: MOUSE, Strain/Sex: BALB/CBYJ/FEMALE): lung: tumor
- outcome (Carcinogen: URETHANE, Doses [Carcinogen]: 1000 MG/KG ONCE, Doses [Promoter]: 0.10, 0.25, 0.50% IN DIET FOR 8 WK BEGINNING 24 HR AFTER INITIATION, Doses [Promoter]: 0.10, 0.25, 0.50% IN DIET FOR 8 WK BEGINNING 24 HR AFTER INITIATION, Route [Carcinogen]: INTRAPERITONEAL, Route [Promoter]: ORAL, Species: MOUSE, Strain/Sex: STRAIN-A/MALE): lung: tumor (nos)
- outcome (Carcinogen: URETHANE, Doses [Carcinogen]: IP, Route [Carcinogen]: INTRAPERITONEAL, Route [Promoter]: INTRAPERITONEAL, Species: MOUSE, Strain/Sex: MALE): lung

Compound: C=CCC1(CC=C)C(=O)NC(=O)NC1=O
- outcome (Carcinogen: N-NITROSODIETHYLAMINE, 55-18-5, Doses [Carcinogen]: 75 MG/KG BW IN 0.85% SALINE ONCE, Doses [Promoter]: 0, 440 PPM IN DIET FOR DURATION OF STUDY BEGINNING 2 WK POST CARCINOGEN DOSE (STUDY DURATION: 78 WK), Route [Carcinogen]: INTRAPERITONEAL, Route [Promoter]: ORAL, Species: RAT, Strain/Sex: F344/MALE): liver: adenoma, carcinoma

Compound: N[C@@H](Cc1c[nH]c2ccccc12)C(=O)O
- outcome (Carcinogen: N-(4-(5-NITRO-2-FURYL)-2-THIAZOLYL)FORMAMIDE, Doses [Carcinogen]: DIET, Doses [Promoter]: IN DIET, Route [Carcinogen]: ORAL, Route [Promoter]: ORAL, Species: MOUSE, Strain/Sex: FEMALE): urinary bladder
